Experimental data: US9386769B2 (HUNAN RESEARCH INSTITUTE OF CHEMICAL INDUSTRY CO., LTD., priority 2011, dated 2016)
Read-outs that look alike come from different tables or passages of the source.

How the values were obtained:
[1] = test system: Sphaceloma ampelinum; test: Fungicidal activity against Sphaceloma ampelinum; assay type: cell-based; settings: 25 mg/L
Experimental: (§1) Bioassay method: Stock solution of every test compound was prepared in an appropriate solvent such as N,N-dimethylformamide (DMF), and then diluted to the required test concentrations with sterile water containing 0.1% Tween 80; Pipetted 3 mL of test solution to 27 mL of potato dextrose agar (PDA) medium at 45° C. and poured into a Petri dish to prepare a plate after shaking thoroughly; 6 mm of diameter of fungi cake from the edge of 7-day-old […] colony was inoculated on the central of the plate, wherein mycelium facing down, and cultured in the culture tank at 28° C. The diameter of fungi spread was calculated 4 days later using the control group tested with the diluent only. Test was run 4 times. Data were subjected to EXCEL statistical software analysis and the growth inhibition of the tested compound was calculated according to the corresponding control, the activity was rated on the basis of percentage of growth inhibition using the following rating system: A, inhibition (%)>90; B, 90≧inhibition (%)>70; C, 70≧inhibition (%)>50; D, inhibition (%)≦50.

[2] = test system: Botrytis cinerea; test: Fungicidal activity against Botrytis cinerea, mycelial growth inhibition on PDA plate; assay type: cell-based; settings: for activities against Botrytis cinerea (growth inhibition rating) / inhibition at 25 µg/mL: 25 mg/L; for inhibition at 25 µg/mL: read-out: activities against Botrytis cinerea (growth inhibition rating)
Experimental: as §1
Fungicidal activities against Botrytis cinerea of compounds represented by the general formula (I) were evaluated with the corresponding method in Example 18, and some of the test results are shown in Table 6 to Table 8.

[3] = test system: Alternaria solani; test: Fungicidal activity against Alternaria solani; assay type: cell-based; settings: 25 mg/L
Experimental: as §1

[4] = test system: Cercospora arachidicola; test: Fungicidal activity against Cercospora arachidicola; assay type: cell-based; settings: 25 mg/L
Experimental: as §1

[5] = test system: Marssonina coronaria; test: Fungicidal activity against Marssonina coronaria; assay type: cell-based; settings: 25 mg/L
Experimental: as §1

[6] = test system: Fusarium oxysporum; test: Fungicidal activity against Fusarium oxysporum; assay type: cell-based; settings: 25 mg/L
Experimental: as §1

[7] = test system: Alternaria mali; test: Fungicidal activity against Alternaria mali; assay type: cell-based; settings: 25 mg/L
Experimental: as §1

[8] = test system: Sclerotinia sclerotiorum; test: Fungicidal activity against Sclerotinia sclerotiorum, mycelial growth inhibition on PDA plate; assay type: cell-based; settings: for inhibition at 25 µg/mL: read-out: activities against Sclerotinia sclerotiorum (growth inhibition rating)
Experimental: as §1

[9] = test system: Tetranychus urticae; test: Acaricidal activity against Tetranychus urticae, dipping of horsebean seedlings; assay type: in vivo
Experimental: Bioassay method: Stock solution of every test compound was prepared in an appropriate solvent such as N,N-dimethylformamide, and a small amount of Tween 80 was added as emulsification agent, then diluted to the required test concentrations with distilled water, using the control group tested with distilled water only. 100 to 200 adults of Tetranychus urticae were transferred to well-growing horsebean seedlings and 24 hr later, horsebean seedlings with Tetranychus urticae were dipped in the test solution for 10 s, then allowed to dry with filter paper and transplanted to the beaker containing water and kept in a room for normal cultivation. Each assay contained three replications, and results were averaged. Mortality was assessed 24 hr after the treatment. The activity was rated on the basis of mortality using the following rating system: A, mortality>90; B, 90≧mortality>70; C, 70≧mortality>50; D, mortality≦50.

[10] = test system: Setaria viridis; test: Herbicidal activity, pre-emergence pot test, Setaria viridis; assay type: in vivo; settings: 150 g a.i./mu, 15 to 25 days after treatment
Excerpt: (§2) Bioassay method: (1) Plastic pots (about 64 cm^2) were filled with soil and placed in a stainless steel basin, seeds with the same size and plumpness of monocotyledonous weeds such as Digitaria sanguinalis, Echinochloa crus-galli, Setaria viridis and Dicotyledonous weeds such as Abutilon theophrasti or Stelleria media or Solanum nigrum, Chenopodium album, Amaranthus ascedene or Amaranthus retroflexus were sown in one-third of the pot area with the soil depth of 1 cm in two different pots separately and grown to the desired leaf stage in a greenhouse wherein water is added to the stainless steel basin until the full infiltration of soils from the bottom of pots; (2) Test compounds represented by the general formula (I) were formulated by using N,N-dimethylformamide as solvent and a small amount of Tween 80 as emulsification agent, then diluted to the required test concentrations with water, using the control group tested with corresponding solvent and water only; (3) the required test solutions were applied for pre-emergence treatment 24 hr after the weeds were sown, for postemergence treatment, monocotyledonous weeds were treated at the 1-leaf stage and dicotyledonous weeds were treated at 2 leaf stage; (4) the pre- and postemergence application rates were 150 g a.i./mu, using the control group with corresponding solvent or water respectively; (5) Treatments were kept in greenhouse for cultivation; (6) Herbicidal activities were evaluated visually 15 to 25 days after treatment, on the basis of the survey results, the weed control effect can be calculated by the following formula: efficacy (%)=(the height of the weed in the control group−the height of the weed in the test group) (the height of the weed in the control group).

[11] = test system: Digitaria sanguinalis; test: Herbicidal activity, pre-emergence pot test, Digitaria sanguinalis; assay type: in vivo; settings: 150 g a.i./mu, 15 to 25 days after treatment
Excerpt: as §2

[12] = test system: Amaranthus spinosus; test: Herbicidal activity, pre-emergence pot test, Amaranthus spinosus; assay type: in vivo; settings: 150 g a.i./mu, 15 to 25 days after treatment
Excerpt: as §2

[13] = test system: Chenopodium album; test: Herbicidal activity, pre-emergence pot test, Chenopodium album; assay type: in vivo; settings: 150 g a.i./mu, 15 to 25 days after treatment
Excerpt: as §2

[14] = test system: Echinochloa crus-galli; test: Herbicidal activity, pre-emergence pot test, Echinochloa crus-galli; assay type: in vivo; settings: 150 g a.i./mu, 15 to 25 days after treatment
Excerpt: as §2

[15] = test system: Abutilon; test: Herbicidal activity, pre-emergence pot test, Abutilon; assay type: in vivo, Abutilon theophrasti; settings: 150 g a.i./mu, 15 to 25 days after treatment
Excerpt: as §2

[16] = test system: Alternaria alternata; test: Fungicidal activity against Alternaria alternata, mycelial growth inhibition on PDA plate; assay type: cell-based; settings: Alternaria alternata; 25 mg/L; read-out: activities against Alternaria alternata (growth inhibition rating)
Experimental: as §1
Fungicidal activities against Alternaria alternata of compounds represented by the general formula (I) were evaluated with the corresponding method in Example 18, and some of the test results are shown in Table 9 to Table 10.

[17] = Botrytis cinerea, 1.25 mg/L, Table 7, read-out: activities against Botrytis cinerea (growth inhibition)
[18] = Botrytis cinerea, 2.5 mg/L, Table 7, read-out: activities against Botrytis cinerea (growth inhibition)
[19] = Botrytis cinerea, 5 mg/L, Table 7, read-out: activities against Botrytis cinerea (growth inhibition)
[20] = Botrytis cinerea, 10 mg/L, Table 7, read-out: activities against Botrytis cinerea (growth inhibition)
[21] = Sclerotinia sclerotiorum, 1.25 mg/L, Table 4, read-out: activities against Sclerotinia sclerotiorum (growth inhibition)
[22] = Sclerotinia sclerotiorum, 2.5 mg/L, Table 4, read-out: activities against Sclerotinia sclerotiorum (growth inhibition)
[23] = Sclerotinia sclerotiorum, 5 mg/L, Table 4, read-out: activities against Sclerotinia sclerotiorum (growth inhibition)
[24] = Sclerotinia sclerotiorum, 10 mg/L, Table 4, read-out: activities against Sclerotinia sclerotiorum (growth inhibition)
[25] = Sclerotinia sclerotiorum, 25 mg/L

CC12CC1(C)C(=O)N(c1cc(Cl)cc(Cl)c1)C2=O (stereo not drawn) [Procymidone, reference compound]
activity against Sphaceloma ampelinum [1]: 96% | inhibition at 0.1562 µg/mL ([2]; Botrytis cinerea, 0.1562 mg/L, Table 8, read-out: activities against Botrytis cinerea (growth inhibition)): 46% | inhibition at 0.3125 µg/mL ([2]; Botrytis cinerea, 0.3125 mg/L, Table 8, read-out: activities against Botrytis cinerea (growth inhibition)): 67% | inhibition at 0.625 µg/mL ([2]; Botrytis cinerea, 0.625 mg/L, Table 8, read-out: activities against Botrytis cinerea (growth inhibition)): 75% | inhibition at 1.255 µg/mL ([2]; Botrytis cinerea, 1.255 mg/L, Table 8, read-out: activities against Botrytis cinerea (growth inhibition)): 83% | inhibition at 2.5 µg/mL ([2]; Botrytis cinerea, 2.5 mg/L, Table 8, read-out: activities against Botrytis cinerea (growth inhibition)): 93% | inhibition at 5 µg/mL ([2]; Botrytis cinerea, 5 mg/L, Table 8, read-out: activities against Botrytis cinerea (growth inhibition)): 100% | activity against Alternaria solani [3]: 94% | activity against Cercospora arachidicola [4]: 85% | activity against Marssonina coronaria [5]: 75% | activity against Fusarium oxysporum [6]: 38% | activity against Alternaria mali [7]: 82% | inhibition at 0.1562 µg/mL ([8]; Sclerotinia sclerotiorum, 0.1562 mg/L, Table 5, read-out: activities against Sclerotinia sclerotiorum (growth inhibition)): 34% | inhibition at 0.3125 µg/mL ([8]; Sclerotinia sclerotiorum, 0.3125 mg/L, Table 5, read-out: activities against Sclerotinia sclerotiorum (growth inhibition)): 63% | inhibition at 0.625 µg/mL ([8]; Sclerotinia sclerotiorum, 0.625 mg/L, Table 5, read-out: activities against Sclerotinia sclerotiorum (growth inhibition)): 66% | inhibition at 1.255 µg/mL ([8]; Sclerotinia sclerotiorum, 1.255 mg/L, Table 5, read-out: activities against Sclerotinia sclerotiorum (growth inhibition)): 76% | inhibition at 2.5 µg/mL ([8]; Sclerotinia sclerotiorum, 2.5 mg/L, Table 5, read-out: activities against Sclerotinia sclerotiorum (growth inhibition)): 79% | inhibition at 5 µg/mL ([8]; Sclerotinia sclerotiorum, 5 mg/L, Table 5, read-out: activities against Sclerotinia sclerotiorum (growth inhibition)): 93%

C=CCOc1ccc([N+](=O)[O-])c(N(CC)Cc2cnc(Cl)s2)n1 [Compound 29, 6-allyloxy-N-((2-chlorothiazole-5-yl)methyl)-N-ethyl-nitropyridine-2-amine]
activities against Tetranychus urticae (mortality rating) ([9]; 500 mg/L, mortality 24 hr after the treatment): C (C, 70≧mortality>50) | activities against Botrytis cinerea (growth inhibition) ([2]; 1.25 mg/L, Table 7): 62% | activities against Botrytis cinerea (growth inhibition) ([2]; 2.5 mg/L, Table 7): 67% | activities against Botrytis cinerea (growth inhibition) ([2]; 5 mg/L, Table 7): 73% | activities against Botrytis cinerea (growth inhibition) ([2]; 10 mg/L, Table 7): 80% | activities against Botrytis cinerea (growth inhibition rating) [2]: A (A, inhibition (%)>90) | activities against Sclerotinia sclerotiorum (growth inhibition) ([8]; 1.25 mg/L, Table 4): 63% | activities against Sclerotinia sclerotiorum (growth inhibition) ([8]; 2.5 mg/L, Table 4): 72% | activities against Sclerotinia sclerotiorum (growth inhibition) ([8]; 5 mg/L, Table 4): 79% | activities against Sclerotinia sclerotiorum (growth inhibition) ([8]; 10 mg/L, Table 4): 83% | activities against Sclerotinia sclerotiorum (growth inhibition rating) ([8]; 25 mg/L): A (A, inhibition (%)>90)

CNc1ccc([N+](=O)[O-])c(N(C)Cc2cnc(Cl)s2)n1 [Compound 20]
herbicidal activity (efficacy), Setaria viridis [10]: 70% | herbicidal activity (efficacy), Digitaria sanguinalis [11]: 70% | herbicidal activity (efficacy), Amaranthus spinosus [12]: 90% | herbicidal activity (efficacy), Chenopodium album [13]: 90% | herbicidal activity (efficacy), Echinochloa crus-galli [14]: 70% | herbicidal activity (efficacy), Abutilon [15]: 70%

CCN(Cc1cnc(Cl)s1)c1nc(N(C)C)ccc1[N+](=O)[O-] [Compound 28, 6-dimethylamino-N-((2-chlorothiazole-5-yl)methyl)-N-ethyl-3-nitropyridine-2-amine]
inhibition at 1.25 µg/mL [2, 17]: 79% | inhibition at 2.5 µg/mL [2, 18]: 86% | inhibition at 5 µg/mL [2, 19]: 91% | inhibition at 10 µg/mL [2, 20]: 96% | inhibition at 25 µg/mL ([2]; Botrytis cinerea): > 90% | melting point: 74.6 to 78.4 °C | inhibition at 1.25 µg/mL [8, 21]: 42% | inhibition at 2.5 µg/mL [8, 22]: 64% | inhibition at 5 µg/mL [8, 23]: 82% | inhibition at 10 µg/mL [8, 24]: 90% | inhibition at 25 µg/mL [8, 25]: > 90%

CCN(Cc1cnc(Cl)s1)c1nc(SC)ccc1[N+](=O)[O-] [Compound 18]
herbicidal activity (efficacy), Setaria viridis [10]: 80% | activities against Botrytis cinerea (growth inhibition rating) [2]: B (B, 90≧inhibition (%)>70) | herbicidal activity (efficacy), Digitaria sanguinalis [11]: 90% | herbicidal activity (efficacy), Amaranthus spinosus [12]: 0% | herbicidal activity (efficacy), Chenopodium album [13]: 0% | herbicidal activity (efficacy), Echinochloa crus-galli [14]: 80% | herbicidal activity (efficacy), Abutilon [15]: 0%

C#CCOc1ccc([N+](=O)[O-])c(N(CC)Cc2cnc(Cl)s2)n1 [Compound 25, 6-propargyloxy-N-((2-chlorothiazole-5-yl)methyl)-N-ethyl-3-nitropyridine-2-amine]
mortality at 500 µg/mL ([9]; Tetranychus urticae, 24 h, read-out: activities against Tetranychus urticae (mortality rating)): 50 to 70% | inhibition at 1.25 µg/mL [2, 17]: 85% | inhibition at 2.5 µg/mL [2, 18]: 90% | inhibition at 5 µg/mL [2, 19]: 93% | inhibition at 10 µg/mL [2, 20]: 97% | inhibition at 25 µg/mL ([2]; Botrytis cinerea): > 90% | inhibition at 25 µg/mL [16]: 70 to 90% | inhibition at 1.25 µg/mL [8, 21]: 78% | inhibition at 2.5 µg/mL [8, 22]: 84% | inhibition at 5 µg/mL [8, 23]: 90% | inhibition at 10 µg/mL [8, 24]: 96% | inhibition at 25 µg/mL [8, 25]: > 90%

CN(C)c1ccc([N+](=O)[O-])c(N(C)Cc2cnc(Cl)s2)n1 [Compound 23]
herbicidal activity (efficacy), Setaria viridis [10]: 0% | activities against Botrytis cinerea (growth inhibition rating) [2]: B (B, 90≧inhibition (%)>70) | herbicidal activity (efficacy), Digitaria sanguinalis [11]: 0% | herbicidal activity (efficacy), Amaranthus spinosus [12]: 80% | herbicidal activity (efficacy), Chenopodium album [13]: 80% | herbicidal activity (efficacy), Echinochloa crus-galli [14]: 0% | herbicidal activity (efficacy), Abutilon [15]: 70%
